Patent publication US20130281397A1, “TREATMENT OF DISEASES BY EPIGENETIC REGULATION” (RVX Therapeutics Inc., priority 2012, published 2013)

Columns and labels:
[1] = test system: c-myc; assay: Inhibition of c-myc expression (mRNA, real-time PCR) in MV4-11 cells; assay type: cell-based, Human; parameters: key: Active: Compounds with an IC50 value less than 30 μM were deemed to be active; conditions: 3 hours at 37° C., duplex with cyclophilin
Experimental: MV4-11 cells (2.5×10^4 cells) were plated in 96 well U-bottom plates with test compound or DMSO (0.1%), and incubated for 3 hours at 37° C. Cells were then harvested by centrifugation, lysed, and mRNA was isolated using the mRNA catcher plus kit (Invitrogen). Reverse transcription of the mRNA and duplex amplification of the c-myc and cyclophilin cDNAs were performed using the RNA Ultrasense kit (Invitrogen) and a ViiA7 real-time PCR machine (Applied Biosystems). IC50 values were determined from a dose response curve.

[2] = target: T1, Brd4 bromodomain 1 (Homo sapiens, UniProt O60885); assay: Inhibition of binding of tetra-acetylated histone H4 and Brd4 bromodomain 1 by TR-FRET; conditions: His-tagged bromodomain 200 nM, biotinylated tetra-acetylated histone H4 peptide 25-50 nM, 2 hours at room temperature
T1 construct: made in house; host or cells: E. coli BL21(DE3)

[3] = test system: Human AML MV-4-11 cells; assay: Inhibition of cell proliferation in human AML MV-4-11 cells; assay type: cell-based; parameters: key: Active: Compounds with an IC50 value less than 30 uM were deemed to be active; conditions: 72 hours, CellTiter Aqueous One Solution, 30 uM to 0.2 μM
Experimental: MV4-11 cells: 96-well plates were seeded with 5×10^4 cells per well of exponentially growing human AML MV-4-11 (CRL-9591) cells and immediately treated with two-fold dilutions of test compounds, ranging from 30 uM to 0.2 μM. Triplicate wells were used for each concentration, as well as a media only and three DMSO control wells. The cells and compounds were incubated at 37° C., 5% CO2 for 72 hours before adding 20 μL of the CellTiter Aqueous One Solution (Promega) to each well and incubating at 37° C., 5% CO2 for an additional 3-4 hours. The absorbance was taken at 490 nm in a spectrophotometer and the percentage of proliferation relative to DMSO-treated cells was calculated after correction from the blank well. IC50 were calculated using the GraphPad Prism software.

SMILES	FRET activity (<50 uM) [2]	melting point [°C]	c-myc activity (<30 uM) [1]	cell proliferation activity (<30 uM) [3]
COc1cc(OC)c2c(=O)[nH]c(-c3cc(C)c(O)c(C)c3)nc2c1 [Example 10, 2-(4-hydroxy-3,5-dimethylphenyl)-5,7-dimethoxyquinazolin-4(3H)-one]	Active		Active	Active
COc1cc(OC)c2c(=O)[nH]c(-c3cc(C)c(OCCO)c(C)c3)nc2c1 [Example 16, 2-(4-(2-hydroxyethoxy)-3,5-dimethylphenyl)-5,7-dimethoxyquinazolin-4(3H)-one]	Active		Active	
COc1cc(OC)c2c(=O)[nH]c(-c3cc(C)c(OCCN4CCOCC4)c(C)c3)nc2c1 [Example 17, 2-(3,5-dimethyl-4-(2-morpholinoethoxy)phenyl)-5,7-dimethoxyquinazolin-4(3H)-one]	Active			Active
COc1cc(OC)c2c(=O)[nH]c(-c3ccc(N4CCN(C)CC4)cc3)nc2c1 [Example 38, 5,7-dimethoxy-2-(4-(4-methylpiperazin-1-yl)phenyl)quinazolin-4(3H)-one]	Active		Active	Active
Cc1cc(-c2nc3ccc(CN4CCOCC4)cc3c(=O)[nH]2)cc(C)c1O [Example 57, 2-(4-hydroxy-3,5-dimethylphenyl)-6-(morpholinomethyl)quinazolin-4(3H)-one]	Active		Active	Active
COc1cc(OC)c2c(=O)[nH]c(-c3cc(C)c(OCC(=O)O)c(C)c3)nc2c1 [Example 59, 2-(4-(5,7-dimethoxy-4-oxo-3,4-dihydroquinazolin-2-yl)-2,6-dimethylphenoxy)acetic acid]	Active	270 to 272	Inactive	
COc1cc(OC)c2c(=O)[nH]c(-c3cc(C)c(OCCN4CCCC4)c(C)c3)nc2c1 [Example 67, 2-(3,5-dimethyl-4-(2-(pyrrolidin-1-yl)ethoxy)phenyl)-5,7-dimethoxyquinazolin-4(3H)-one]			Active	Active
CC(=O)Nc1ccc2nc(-c3cc(C)c(OCCO)c(C)c3)[nH]c(=O)c2c1 [Example 68, N-(2-(4-(2-hydroxyethoxy)-3,5-dimethylphenyl)-4-oxo-3,4-dihydroquinazolin-6-yl)acetamide]	Inactive	> 300		
Cc1cc(-c2cc3nc(OC(C)C)cc(OC(C)C)c3c(=O)[nH]2)cc(C)c1O [Example 69, 7-(4-hydroxy-3,5-dimethylphenyl)-2,4-diisopropoxy-1,6-naphthyridin-5(6H)-one]	Active	206 to 208		
COc1cc(OC)c2c(=O)[nH]c(-c3ccc(O)c(CCO)c3)nc2c1 [Example 70, 2-(4-hydroxy-3-(2-hydroxyethyl)phenyl)-5,7-dimethoxyquinazolin-4(3H)-one]	Active	249 to 250.3		
COCCOc1c(C)cc(-c2nc3cc(OC)cc(OC)c3c(=O)[nH]2)cc1C [Example 73, 5,7-dimethoxy-2-(4-(2-methoxyethoxy)-3,5-dimethylphenyl)quinazolin-4(3H)-one]	Active	201 to 202		
COc1cc2nc(-c3cc(C)c(O)c(C)c3)[nH]c(=O)c2c(OC)c1CN1CCOCC1 [Example 75, 2-(4-hydroxy-3,5-dimethylphenyl)-5,7-dimethoxy-6-(morpholinomethyl)quinazolin-4(3H)-one]	Active	237 to 239.1	Active	Active

Further lines, with some results ahead:

FRET activity (<50 uM) [2]	melting point [°C]	SMILES	c-myc activity (<30 uM) [1]	cell proliferation activity (<30 uM) [3]
Active	253 to 254	COc1cc(OC)c2c(=O)n(C)c(-c3cc(C)c(O)c(C)c3)cc2c1 [Example 4, 3-(4-hydroxy-3,5-dimethylphenyl)-6,8-dimethoxy-2-methylisoquinolin-1(2H)-one]	Active	Active
Active	158 to 161	COc1cc2cc(-c3cc(C)c(O)c(C)c3)[nH]c(=O)c2c(OC)c1CN1CCOCC1 [Example 46, 3-(4-hydroxy-3,5-dimethylphenyl)-6,8-dimethoxy-7-(morpholinomethyl)isoquinolin-1(2H)-one]	Active	Active
Active	188.5 to 189.1	COc1cc(OC)c2c(=O)nc(-c3cc(C)c(O)c(C)c3)n(C)c2c1 [Example 66, 2-(4-hydroxy-3,5-dimethylphenyl)-5,7-dimethoxy-1-methylquinazolin-4(1H)-one]		
Inactive	259.6 to 261.2	Cc1cc(C)c2c(=O)[nH]c(-c3cc(C)c(OCCO)c(C)c3)nc2c1 [Example 71, 2-(4-(2-hydroxyethoxy)-3,5-dimethylphenyl)-5,7-dimethylquinazolin-4(3H)-one]		
Active	277 to 279	COc1cc(OC)c2c(=O)[nH]c(-c3ccc(N(CCO)CCO)cc3)nc2n1 [Example 72, 2-(4-(bis(2-hydroxyethyl)amino)phenyl)-5,7-dimethoxy-pyrido[2,3-d]pyrimidin-4(3H)one]		
Active	260.8 to 262.6	Cc1cc(-c2nc3cc(Cl)cc(Cl)c3c(=O)[nH]2)cc(C)c1OCCO [Example 74, 5,7-dichloro-2-(4-(2-hydroxyethoxy)-3,5-dimethylphenyl)quinazolin-4(3H)-one]		
Active		COc1cc(OC)c2c(=O)[nH]c(-c3cc(C)c(OCCNS(C)(=O)=O)c(C)c3)nc2c1 [Example 96, N-(2-(4-(5,7-dimethoxy-4-oxo-3,4-dihydroquinazolin-2-yl)-2,6-dimethylphenoxy)ethyl)methanesulfonamide]	Inactive	Active
Active	275 to 277	COc1cc(OC)c2c(=O)[nH]c(-c3ccc(OCC(=O)O)c(OC)c3)nc2c1 [Example 97, 2-(4-(5,7-dimethoxy-4-oxo-3,4-dihydroquinazolin-2-yl)-2-methoxyphenoxy)acetic acid]		
Inactive	291.3 to 293	COc1cc(O)c2c(=O)[nH]c(-c3cc(C)c(O)c(C)c3)nc2c1 [Example 98, 5-hydroxy-2-(4-hydroxy-3,5-dimethylphenyl)-7-methoxyquinazolin-4(3H)-one]		
